Patent EP1101499A2, “Diagnostic agents for pancreatic exocrine function” (Tokyo Gas Company Limited, priority 1999, dated 2001)
Values joined by “and” are separate entries in the source; they are usually repeats but may differ in a detail not shown here. Identical values can stand only once.

Legend:
[1] = tested on: pancreatic exocrine function; assay: 13C-breath test after oral administration to chronic pancreatitis (oleic acid model) and control/normal rats; type: in vivo, rat; settings: for Δ^13C value at 30 minutes after the administration: group value n=4, 30 mg/kg orally; for Δ^13C (mean) value at 15 minutes after the administration: mean n=2, 420 mg/kg orally; for Δ^13C value at 20 minutes after the administration / Δ^13C value at 10 minutes after the administration: group value n=4, 250 mg/kg orally
Protocol: […] The rat of 9 weeks old was fixed without anesthesia in a rat holder for a microwave irradiation apparatus. The breath was collected at a rate of about 100 to 300 ml/min using a stroke pump (Variable Stroke Pump VS-500, Shibata Kagaku Kogyo) and introduced directly to a flow cell of a ^13CO2 analyzer EX-130S (Nihon Bunko). A Perma Pure drier (MD-050-12P, Perma Pure INC.) was set between the rat holder and stroke pump to remove out water vapor in the breath. CO2 concentration was stabilized, the rat was once removed out of the rat holder and Bz-DL-Phe-(^13C-Leu).Na dissolved in distilled water was administered into the stomach using an oral sonde.
Output data from the ^13CO2 analyzer were AD converted and put into a personal computer (Apple Power Macintosh 8500). Using a data processing soft ware Lab VIEW (National Instruments), 10 data points at every 100 msec were integrated and averaged in an interval of 5 seconds and converted to ^13C atom %, Δ^13C (‰), and CO2 concentration (%). In this manner, the ^13C breath test was continuously carried out. […] CO2 concentration in the collected breath was held at 3 ± 0.5%.
Δ^13C (%o) was calculated from the ^13C concentration in the exhaled CO2 at each time point (^13C tmin) and the ^13C concentration in standard CO2 (^13C std) according to the following equation: Δ^13 (C (‰) - [()^13 (C tmin -)^13 (C 0min)/)^13 C std] x 1000 [formula]

[2] = tested on: pancreatic exocrine function; assay: PFD test: oral BT-PABA, PABA excretion rate in urine; type: in vivo, rat; settings: specificity 100%
Protocol: The rats of the model of chronic pancreatitis and control rats, which were kept for 3 to 4 weeks after the operation, were made to fast from 9:00 AM. At 4:00 PM, 3 mg/ml of BT-PABA (PFD solution for internal use, Eisai) was orally administered in an amount of 15 mg/kg. Urine was collected for 16 hours until 9:00 AM of the next day. The amount of the collected urine and the PABA concentration in the urine were determined using a PABA measuring kit to determine the excretion rate in urine (PFD test).

chymotrypsin = assay: Degradation by chymotrypsin, released leucine determined by ninhydrin reaction; type: biochemical, bovine; settings: 23 mM substrate, 0.16 mg/ml chymotrypsin, 20 mM HEPPS-Na pH 8.0, 37°C, 15 minutes
Protocol: Bz-DL-Phe-(^13C-Leu) was reacted with chymotrypsin and the degradation product, leucine, generated upon action of chymotrypsin was quantitatively determined by ninhydrin reaction. The reaction was carried out in 20 mM HEPPS-Na (pH 8.0), 23 mM Bz-DL-Phe- (^13C-Leu), 0.16 mg/ml chymotrypsin (from bovine pancreas, Worthington Biochemical Corporation, #1432, Lot 37A906) at 37°C for 15 minutes. After reaction, 50 µl of citrate buffer (citric acid monohydrate), 20 µl of ninhydrin solution (50 mg/ml solution in methyl cellosolve) and 100 µl of KCN solution (0.01 M aqueous KCN solution diluted 50 times with methyl cellosolve) were added to 100 µl of the reaction mixture and heated at 100°C for 15 minutes. After cooling the ninhydrin reaction mixture to room temperature, 150 µl of 60% (V/V) ethanol was added to 100 µl of the ninhydrin reaction mixture and stirred followed by determination of an absorbance at a wave length of 570 nm. An experiment wherein all the reactions that were carried out without adding Bz-DL-Phe-(^13C-Leu) was taken as a "blank," and leucine was used as a standard.

[3] = individual chronic pancreatitis rats #1-#4, sodium salt 250 mg/kg orally
[4] = individual normal rats #1-#4, sodium salt 250 mg/kg orally

Arg-(^13C-Leu) was tested, and the “Δ^13C value at 30 minutes after the administration” value ([1]; chronic pancreatitis rats) was 4.37 ± 1.83 %o, the “Δ^13C (%o) at 30 min” value ([1]; individual chronic pancreatitis rats #1-#4, 30 mg/kg orally) was 3.74 %o and 6.97 %o and 4.87 %o and 1.92 %o and the “Δ^13C (%o) at 30 min” value ([1]; individual normal rats #1-#4, 30 mg/kg orally) was 10.30 %o and 13.74 %o and 15.37 %o and 10.08 %o. For the same compound, the “Δ^13C value at 30 minutes after the administration” value ([1]; normal rats) was 12.37 ± 2.26 %o.
In the case of O=C(O)c1ccc(NC(=O)[C@H](Cc2ccc(O)cc2)NC(=O)c2ccccc2)cc1 [PFD, N-benzoyl-L-tyrosyl-p-aminobenzoic acid], the “sensitivity in the PFD test” value ([2]; 15 mg/kg orally, same group of rats as the Bz-DL-Phe-(^13C-Leu) breath test (n=8 / n=4)) is reported as 50%, the “sensitivity in the PFD test” value ([2]; same group of rats as the Bz-Ala-(^13C-Ala) breath test (n=8 / n=7)) is reported as 63% and the “sensitivity in the PFD test” value ([2]; same group of rats as the Bz-Gly-(^13C-Leu) breath test (n=10 / n=10)) is reported as 50%.
Work on Bz-DL-Phe-(^13C-Leu) yielded a rate of degradation (chymotrypsin) of 1.72 nmole/mg chymotrypsin/min.
For “Bz-Ala-Ala-Ala-Ala-(^13C-Gly)-Phe-Leu.Na”, the “Δ^13C (mean) value at 15 minutes after the administration” value ([1]; chronic pancreatitis rats) was 0.61 %o and the “Δ^13C (mean) value at 15 minutes after the administration” value ([1]; normal rats) was 33.32 %o.
In the case of Bz-L-Phe-(^13C-Leu), the “Δ^13C (%o) at 10 min” value [1, 3] is reported as 1.61 %o and 3.28 %o and 17.21 %o and 5.77 %o and the “Δ^13C (%o) at 10 min” value [1, 4] is reported as 31.29 %o and 60.25 %o and 165.37 %o and 203.16 %o.
With Bz-Tyr-(^13C-Leu) the “Δ^13C (%o) at 20 min” value [1, 3] was 8.76 %o and 3.58 %o and 2.44 %o and -0.15 %o and the “Δ^13C (%o) at 20 min” value [1, 4] was 111.32 %o and 65.76 %o and 21.02 %o and 80.02 %o.
In the case of Bz-DL-Phe-(^13C-Leu).Na, the sensitivity ([1]; 250 mg/kg orally, Δ^13C at 10 minutes as check value, cut off set for specificity 100%, chronic pancreatitis n=8, control n=4) is reported as 100% and the “Δ^13C (‰) values at 10 minutes after the administration” value ([1]; chronic pancreatitis rats (n=8) compared with control rats (n=4), 250 mg/kg orally) is reported as “smaller than the smallest value of Δ ^13C (‰) for the control rats”.
In the case of Bz-Tyr-(^13C-Leu).Na, the “Δ^13C value at 20 minutes after the administration” value ([1]; chronic pancreatitis rats) is reported as 3.66 ± 3.24 %o and the “Δ^13C value at 20 minutes after the administration” value ([1]; normal rats) is reported as 69.53 ± 32.50 %o.
With Bz-L-Phe-(^13C-Leu).Na the “Δ^13C value at 10 minutes after the administration” value ([1]; chronic pancreatitis rats) was 6.97 ± 6.09 %o and the “Δ^13C value at 10 minutes after the administration” value ([1]; normal rats) was 115.02 ± 71.26 %o.
With Bz-Ala-Ala-Ala-Ala-(^13C-Gly)-Phe-Leu the “Δ^13C (%o) at 15 min” value ([1]; individual chronic pancreatitis rats #1-#2, sodium salt 420 mg/kg orally) was -1.90 %o and 3.12 %o and the “Δ^13C (%o) at 15 min” value ([1]; individual normal rats #1-#2, sodium salt 420 mg/kg orally) was 23.47 %o and 43.16 %o.
Bz-Gly-(^13C-Leu)-Na was tested, and the sensitivity ([1]; 50 mg/kg orally, Δ^13C at 18 minutes as check value, specificity 100%, chronic pancreatitis n=10, normal n=10) was 80%.
